Assay results taken from ChEMBL document CHEMBL1132650, “4,5-Dihydro-1,2,4-triazolo[1,5-a]quinoxalin-4-ones: excitatory amino acid antagonists with combined glycine/NMDA and AMPA receptor affinity” (J Med Chem, 1999).

How the values were obtained:
[1] = biological target: T1, Glutamate receptor ionotropic, AMPA (Rattus norvegicus, UniProt P19490+P19491+P19492+P19493); assay: Binding affinity towards ionotropic glutamate receptor AMPA in rat cortical membranes using [3H]AMPA radioligand; type: cell membranes
[2] = biological target: T2, Glutamate receptor ionotropic, NMDA 1 (Rattus norvegicus, UniProt P35439); assay: Functional antagonism at the N-methyl-D-aspartate glutamate receptor 1 was demonstarted by the ability to inhibit the binding of the channel-blocking agent [3H](+)-MK-801
[3] = biological target: T2, Glutamate receptor ionotropic, NMDA 1; assay: Binding affinity towards N-methyl-D-aspartate glutamate receptor 1 in rat cortical membranes using [3H]glycine as radioligand; type: cell membranes
[4] = biological target: T1, Glutamate receptor ionotropic, AMPA; assay: The compound was tested for its binding affinity towards AMPA receptor in rat cortical membranes using [3H]AMPA radioligand; type: cell membranes
[5] = biological target: T2, Glutamate receptor ionotropic, NMDA 1; assay: The compound was tested for its binding affinity towards Glycine/NMDA receptor in rat cortical membranes using [3H]glycine as radioligand; type: cell membranes
[6] = biological target: T2, Glutamate receptor ionotropic, NMDA 1; assay: Functional antagonism at the NMDA receptor-ion channel complex was demonstarted by the ability to inhibit the binding of the channel-blocking agent [3H](+)-MK-801

| Ki [1] | EC50 [2] | Ki [3] | Ki [4] | Ki [5] | EC50 [6] | SMILES |
| --- | --- | --- | --- | --- | --- | --- |
| 13.6 µM | 4.9 µM | 1.1 µM |  |  |  | O=C(O)c1nc2c(=O)[nH]c3ccccc3n2n1 |
| 18.4 µM | 32.5 µM | 3.5 µM |  |  |  | O=C(O)c1nc2c(=O)[nH]c3ccc(Cl)cc3n2n1 |
| 2 µM |  | 9.7 µM |  |  |  | N#CCc1nc2c(O)nc3cc(Cl)ccc3n2n1 |
| 3.7 µM |  | 1.1 µM |  |  |  | O=C(O)Cc1nc2c(O)nc3cc(Cl)ccc3n2n1 |
| 2.4 µM |  | 5.1 µM |  |  |  | O=C(Nc1nn[nH]n1)c1nc2c(O)nc3cc(Cl)ccc3n2n1 |
|  |  |  | 3 µM | 1.1 µM |  | O=C(NO)c1nc2c(O)nc3cc(Cl)ccc3n2n1 |
| 2.6 µM | 22.1 µM | 3 µM |  |  |  | CCOC(=O)c1nc2c(O)nc3cc(Cl)ccc3n2n1 |
| 4.1 µM |  | 5.4 µM |  |  |  | COC(=O)CNC(=O)c1nc2c(=O)[nH]c3cc(Cl)ccc3n2n1 |
| 28.5 µM | 69 µM | 16.7 µM |  |  |  | CCOC(=O)c1nc2c(O)nc3ccccc3n2n1 |
| > 100 µM | > 100 µM | > 100 µM |  |  |  | CCOC(=O)c1nc2c(=O)[nH]c3cc(N)ccc3n2n1 |
| 11.7 µM |  | 7.2 µM |  |  |  | NC(=O)c1nc2c(=O)[nH]c3cc(Cl)ccc3n2n1 |
| 1.3 µM |  |  |  | 0.074 µM | 0.3 µM | O=C(O)c1nc2c(=O)[nH]c3cc(Cl)c(Cl)cc3n2n1 |
| 4 µM | > 100 µM | 4.5 µM |  |  |  | O=C(O)c1nc2c(O)nc3c([N+](=O)[O-])cc(Cl)cc3n2n1 |
| 4.4 µM | 3.7 µM | 0.39 µM |  |  |  | O=C(O)c1nc2c(=O)[nH]c3cc(Br)ccc3n2n1 |
| 3.6 µM |  | 1.8 µM |  |  |  | CCOC(=O)c1nc2c(=O)[nH]c3cc(C(F)(F)F)ccc3n2n1 |
| 72.1 µM |  | 88.2 µM |  |  |  | CCOC(=O)c1nc2c(=O)[nH]c3ccc(Cl)cc3n2n1 |

| Ki [1] | EC50 [2] | Ki [3] | Ki [4] | Ki [5] | EC50 [6] | SMILES |
| --- | --- | --- | --- | --- | --- | --- |
| 4.9 µM |  | 4.8 µM |  |  |  | CCOC(=O)c1nc2c(=O)[nH]c3cc(Cl)cc(Cl)c3n2n1 |
|  |  |  | 5 µM | 9.6 µM |  | NNC(=O)c1nc2c(=O)[nH]c3cc(Cl)ccc3n2n1 |
|  | 0.33 µM |  |  |  |  | O=C(O)c1cc(O)c2c(Cl)cc(Cl)cc2n1 |
| 1.2 µM |  | 2.2 µM |  |  |  | O=C(O)c1nc2c(O)nc3cc(Cl)c([N+](=O)[O-])cc3n2n1 |
| 10.7 µM | > 100 µM | 79.4 µM |  |  |  | O=C(O)c1nc2c(O)nc3ccc([N+](=O)[O-])cc3n2n1 |
| 0.9 µM | 3.18 µM | 0.57 µM |  |  |  | O=C(O)c1nc2c(O)nc3cc(C(F)(F)F)ccc3n2n1 |
| 0.78 µM | 2.9 µM | 0.17 µM |  |  |  | O=C(O)c1nc2c(O)nc3cc(Cl)ccc3n2n1 |
| > 100 µM | > 100 µM | 88 µM |  |  |  | CCn1c(=O)c2nc(C(=O)O)nn2c2ccc(Cl)cc21 |
| 1.53 µM | 1.35 µM | 0.14 µM |  |  |  | O=C(O)c1nc2c(=O)[nH]c3cc(Cl)cc(Cl)c3n2n1 |
| 33.9 µM | 1.5 µM | 0.71 µM |  |  |  | CCOC(=O)c1nc2c(O)nc3cc(Cl)c(Cl)cc3n2n1 |
| 3.2 µM |  | 8.8 µM |  |  |  | O=C(O)CNC(=O)c1nc2c(O)nc3cc(Cl)ccc3n2n1 |
| 4.4 µM |  | 7.5 µM |  |  |  | OCc1nc2c(O)nc3cc(Cl)ccc3n2n1 |
| 2.1 µM |  | 6.5 µM |  |  |  | CCOC(=O)Cc1nc2c(=O)[nH]c3cc(Cl)ccc3n2n1 |
| 7.7 µM |  | 27.7 µM |  |  |  | O=C(NCCO)c1nc2c(O)nc3cc(Cl)ccc3n2n1 |
| 3.3 µM |  | 2.6 µM |  |  |  | CCOC(=O)c1nc2c(O)nc3cc(Br)ccc3n2n1 |

| SMILES | Ki [1] | EC50 [2] | Ki [3] | Ki [4] | Ki [5] | EC50 [6] |
| --- | --- | --- | --- | --- | --- | --- |
| O=C(O)c1nc2c(=O)[nH]c3cc([N+](=O)[O-])ccc3n2n1 | 0.6 µM | 7.8 µM | 0.71 µM |  |  |  |
